The text below walks through data of patent US20230233569A1 (Revolution Medicines, Inc., priority 2020, published 2023).

Common to all, as to assay: Disruption of BRAF RBD interaction with Ras (FRET / MOA assay, with Cyclophilin A)
Common to all, as to format: biochemical

Assay [1] concerns the target NRAS Q61K (Homo sapiens, UniProt P01111+P62937, Q61K). The note with it: NRAS Q61K; read-out: NRAS Q61K FRET data IC50. The text has this: (§1) Disruption of B-Raf Ras-Binding Domain (BRAF^RBD) Interaction with K-Ras by Compounds of the Invention (Also Called a FRET Assay or an MOA Assay)
(§2) Note—The following protocol describes a procedure for monitoring disruption of K-Ras G12C (GMP-PNP) binding to BRAF^RBD by a compound of the invention. This protocol may also be executed substituting other Ras proteins or nucleotides.
(§3) The purpose of this biochemical assay was to measure the ability of test compounds to facilitate ternary complex formation between a nucleotide-loaded K-Ras isoform and Cyclophilin A; the resulting ternary complex disrupts binding to a BRAF^RBD construct, inhibiting K-Ras signaling through a RAF effector. Data is reported as IC50 values.
(§4) In assay buffer containing 25 mM HEPES pH 7.3, 0.002% Tween20, 0.1% BSA, 100 mM NaCl and 5 mM MgCl2, tagless Cyclophilin A, His6-K-Ras-GMPPNP, and GST-BRAF^RBD were combined in a 384-well assay plate at final concentrations of 25 μM, 12.5 nM and 50 nM, respectively. Compound was present in plate wells as a 10-point 3-fold dilution series starting at a final concentration of 30 μM. After incubation at 25° C. for 3 hours, a mixture of Anti-His Eu-W1024 and anti-GST allophycocyanin was then added to assay sample wells at final concentrations of 10 nM and 50 nM, respectively, and the reaction incubated for an additional 1.5 hours. […] Compounds that facilitate disruption of a K-Ras:RAF complex were identified as those eliciting a decrease in the TR-FRET ratio relative to DMSO control wells.
(§5) The purpose of this biochemical assay was to measure the ability of test compounds to facilitate ternary complex formation between a nucleotide-loaded K-Ras isoform and Cyclophilin A; the resulting ternary complex disrupts binding to a BRAF^RBDD construct, inhibiting K-Ras signaling through a RAF effector. Data is reported as IC50 values.

The target in assay [2] is KRAS Q61H (Homo sapiens, UniProt P01116+P62937, Q61H). Particulars: KRAS Q61H; read-out: KRAS Q61H FRET data IC50.
Sequence of KRAS Q61H (P01116 1-169 isoform P01116-2 Q61H limits assumed): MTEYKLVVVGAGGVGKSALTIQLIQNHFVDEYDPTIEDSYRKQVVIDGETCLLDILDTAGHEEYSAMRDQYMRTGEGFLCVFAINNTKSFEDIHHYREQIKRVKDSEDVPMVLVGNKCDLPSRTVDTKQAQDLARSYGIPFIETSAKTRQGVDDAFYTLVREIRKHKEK
Sequence of KRAS Q61H (P62937 whole entry): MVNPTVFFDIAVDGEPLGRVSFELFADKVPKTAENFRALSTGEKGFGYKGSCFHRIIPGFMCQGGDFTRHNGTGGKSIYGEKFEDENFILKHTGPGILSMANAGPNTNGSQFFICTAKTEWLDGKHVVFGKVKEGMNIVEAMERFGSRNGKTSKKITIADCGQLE
Excerpt: as §1, §2, §3, §4, §5

Assay [3] concerns the target KRAS G12C (Homo sapiens, UniProt P01116+P62937, G12C). The note with it: KRAS G12C; read-out: KRAS G12C FRET data IC50. The method in brief: (§6)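 Compound-driven ternary complex formation between nucleotide-loaded K-Ras and Cyclophilin A was measured as loss of BRAF RBD binding. Compounds (10-point 3-fold series, top 30 μM final) were incubated 3 h at 25 °C, then anti-His Eu-W1024 (10 nM) and anti-GST allophycocyanin (50 nM) added for 1.5 h. IC50 was taken from the TR-FRET ratio decrease versus DMSO.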

For assay [4], the target named is NRAS G12C (Homo sapiens, UniProt P01111+P62937, G12C). The note with it: NRAS G12C; read-out: NRAS G12C FRET data IC50.
Sequence of NRAS G12C (P01111 whole entry G12C): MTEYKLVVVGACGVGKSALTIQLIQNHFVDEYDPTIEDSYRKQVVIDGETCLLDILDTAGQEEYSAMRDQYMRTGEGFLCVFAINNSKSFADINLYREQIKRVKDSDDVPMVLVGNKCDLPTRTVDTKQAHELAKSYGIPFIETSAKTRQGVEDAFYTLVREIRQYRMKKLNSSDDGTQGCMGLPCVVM
Sequence of NRAS G12C (P62937 whole entry): as the sequence (P62937 whole entry) above
In assay [5] the target is KRAS G13D (Homo sapiens, UniProt P01116+P62937, G13D). The note with it: KRAS G13D; read-out: KRAS G13D FRET data IC50. In a few lines: as §6
Sequence of KRAS G13D (P01116 1-169 isoform P01116-2 G13D limits assumed): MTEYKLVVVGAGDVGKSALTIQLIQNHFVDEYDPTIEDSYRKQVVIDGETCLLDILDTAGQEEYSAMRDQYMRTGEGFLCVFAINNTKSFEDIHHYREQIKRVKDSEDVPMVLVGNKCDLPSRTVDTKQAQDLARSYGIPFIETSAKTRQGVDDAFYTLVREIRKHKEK
Sequence of KRAS G13D (P62937 whole entry): as the sequence (P62937 whole entry) above
The target of assay [6] is KRAS G13C (Homo sapiens, UniProt P01116+P62937, G13C). The note with it: KRAS G13C; read-out: KRAS G13C FRET data IC50. In a few lines:
as §6

Assay [7] has as its target KRAS G12S (Homo sapiens, UniProt P01116+P62937, G12S). The note with it: read-out: KRAS G12S FRET data, IC50. The method in brief:
as §6

In assay [8] the target is KRAS G12V (Homo sapiens, UniProt P01116+P62937, G12V). Particulars: KRAS G12V; read-out: KRAS G12V FRET data IC50. In a few lines: as §6
Sequence of KRAS G12V (P01116 1-169 isoform P01116-2 G12V limits assumed): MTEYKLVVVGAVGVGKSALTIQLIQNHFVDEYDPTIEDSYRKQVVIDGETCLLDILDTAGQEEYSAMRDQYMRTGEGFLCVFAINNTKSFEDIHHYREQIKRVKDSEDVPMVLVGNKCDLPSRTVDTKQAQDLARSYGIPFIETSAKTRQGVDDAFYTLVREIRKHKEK
Sequence of KRAS G12V (P62937 whole entry): as the sequence (P62937 whole entry) above
In assay [9] the target is KRAS WT (Homo sapiens, UniProt P01116+P62937). The note with it: KRAS WT; read-out: KRAS WT FRET data IC50. The method in brief: as §6
Sequence of KRAS WT (P01116 1-169 isoform P01116-2 limits assumed): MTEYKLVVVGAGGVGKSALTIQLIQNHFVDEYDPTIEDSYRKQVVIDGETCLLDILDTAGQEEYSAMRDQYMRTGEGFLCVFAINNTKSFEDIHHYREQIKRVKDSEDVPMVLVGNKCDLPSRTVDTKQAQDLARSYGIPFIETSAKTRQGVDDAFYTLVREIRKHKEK
Sequence of KRAS WT (P62937 whole entry): as the sequence (P62937 whole entry) above
Assay [10] concerns the target KRAS G12D (Homo sapiens, UniProt P01116+P62937, G12D). The note with it: read-out: KRAS G12D FRET data, IC50. The method in brief: as §6
The target in assay [11] is NRAS Q61R (Homo sapiens, UniProt P01111+P62937, Q61R). The note with it: NRAS Q61R; read-out: NRAS Q61R FRET data IC50.
Sequence of NRAS Q61R (P01111 whole entry Q61R): as the sequence (P01111 whole entry G12C) above, with C12G, Q61R counted along it
Sequence of NRAS Q61R (P62937 whole entry): as the sequence (P62937 whole entry) above
Excerpt: as §1, §2, §3, §4, §5

The structures appear in SMILES notation. “And” between values parts separate entries of the source, which are not always exact repeats. Equal values may be shown once.

Sequence of KRAS G12D (P01116 1-169 isoform P01116-2 G12D limits assumed): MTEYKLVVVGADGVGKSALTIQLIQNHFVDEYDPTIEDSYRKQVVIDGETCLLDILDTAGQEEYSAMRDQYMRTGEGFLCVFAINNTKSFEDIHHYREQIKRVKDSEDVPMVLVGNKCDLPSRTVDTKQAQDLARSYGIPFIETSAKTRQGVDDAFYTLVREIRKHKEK
Sequence of KRAS G12D (P62937 whole entry): as the sequence (P62937 whole entry) above
Sequence of KRAS G12S (P01116 1-169 isoform P01116-2 G12S limits assumed): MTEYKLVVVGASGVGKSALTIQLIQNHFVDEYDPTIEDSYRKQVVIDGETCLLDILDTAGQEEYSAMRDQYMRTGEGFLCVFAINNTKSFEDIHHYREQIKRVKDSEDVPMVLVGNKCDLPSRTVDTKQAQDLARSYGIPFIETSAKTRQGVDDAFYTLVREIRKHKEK
Sequence of KRAS G12S (P62937 whole entry): as the sequence (P62937 whole entry) above
Sequence of NRAS Q61K (P01111 whole entry Q61K, the tested form may be a part): as the sequence (P01111 whole entry G12C) above, with C12G, Q61K counted along it
Sequence of NRAS Q61K (P62937 whole entry, the tested form may be a part): as the sequence (P62937 whole entry) above
Sequence of KRAS G13C (P01116 1-169 isoform P01116-2 G13C): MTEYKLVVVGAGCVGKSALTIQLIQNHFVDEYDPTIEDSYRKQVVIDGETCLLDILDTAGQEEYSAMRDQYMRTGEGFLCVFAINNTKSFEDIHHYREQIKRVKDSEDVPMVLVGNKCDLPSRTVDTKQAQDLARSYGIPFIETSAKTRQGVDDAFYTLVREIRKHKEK
Sequence of KRAS G13C (P62937 whole entry): as the sequence (P62937 whole entry) above
Sequence of KRAS G12C (P01116 1-169 isoform P01116-2 G12C): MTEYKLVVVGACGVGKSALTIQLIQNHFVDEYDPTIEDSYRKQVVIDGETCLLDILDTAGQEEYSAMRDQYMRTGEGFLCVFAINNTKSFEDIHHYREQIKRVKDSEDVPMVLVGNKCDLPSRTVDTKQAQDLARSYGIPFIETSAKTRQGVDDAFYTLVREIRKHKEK
Sequence of KRAS G12C (P62937 whole entry): as the sequence (P62937 whole entry) above

As for `CCn1c(-c2cccnc2[C@H](C)OC)c2c3cc(ccc31)-c1csc(n1)C[C@H](NC(=O)[C@H](C(C)C)N(C)C(=O)N1CC3(CN(C)C3)C1)C(=O)N1CCC[C@H](N1)C(=O)OCC(C)(C)C2` (atropisomer, axis not shown) [Example A268], the IC50 in assay [1] and in [2] was 10 to 100 nM in each case.
`CCn1c(-c2cccnc2[C@H](C)OC)c2c3cc(ccc31)-c1cccc(c1)C[C@H](NC(=O)[C@H](C(C)C)N(C)C(=O)N1CCC13CN(C(=O)C#CC(C)(C)N(C)C)C3)C(=O)N1CCC[C@H](N1)C(=O)OCC(C)(C)C2` (atropisomer, axis not shown) [Example A717]: the IC50 in [3] lay within 100 to 1000 nM; in assay [4], 100 to 1000 nM; in [5] it was 1000 to 10000 nM; in assay [2] it was 100 to 1000 nM.
`C=CC(=O)N1CC[C@H](C(=O)N(C)[C@H](C(=O)N[C@H]2Cc3cc(O)cc(c3)-c3ccc4c(c3)c(c(-c3ccccc3[C@H](C)OC)n4CC)CC(C)(C)COC(=O)[C@@H]3CCCN(N3)C2=O)C(C)C)C1` [Example A022]: the IC50 in [3] fell in the range of 10 to 100 nM; in assay [6] it was 100 to 1000 nM; in assay [7], 100 to 1000 nM; in assay [8], 100 to 1000 nM; in [9], 100 to 1000 nM; in assay [10], 1000 to 10000 nM. Further, the IC50 in assay [1] is 100 to 1000 nM; in [11], 100 to 1000 nM; in assay [2], 10 to 100 nM.
For the compound `C=CC(=O)N1CC[C@H](C(=O)N(C)[C@H](C(=O)N[C@H]2Cc3cc(O)cc(c3)-c3ccc4c(c3)c(c(-c3c(F)cccc3CCOC)n4CC)CC(C)(C)COC(=O)[C@@H]3CCCN(N3)C2=O)C(C)C)C1` [Example A025], the IC50 was 100 to 1000 nM in [3]; 1000 to 10000 nM in assay [6]; 1000 to 10000 nM in assay [7]; 1000 to 10000 nM in assay [8]; 1000 to 10000 nM in [9]; above 10000 nM in [10]. In addition, the values for the IC50 in assay [1], in assay [11] and in [2] were 1000 to 10000 nM, above 10000 nM and 1000 to 10000 nM, respectively.
On to `C=CC(=O)N1CC[C@H](C(=O)N(C)[C@H](C(=O)N[C@H]2Cc3cc(O)cc(c3)-c3ccc4c(c3)c(c(-c3ccccc3N3CCOCC3)n4CC)CC(C)(C)COC(=O)[C@@H]3CCCN(N3)C2=O)C(C)C)C1` [Example A026], for which the 50% inhibitory concentration (IC50) in assay [3] was 100 to 1000 nM; in [6] it was above 10000 nM; in [7], above 10000 nM; in [8], above 10000 nM; in assay [9] it was above 10000 nM; in assay [10] it was above 10000 nM. The half-maximal inhibitory concentration (IC50) in assay [1] is above 10000 nM; in assay [11], above 10000 nM; in [2], 1000 to 10000 nM.
With `C=CC(=O)N1CC[C@H](C(=O)N(C)[C@H](C(=O)N[C@H]2Cc3cc(O)cc(c3)-c3ccc4c(c3)c(c(-c3cccnc3)n4CC)CC(C)(C)COC(=O)[C@@H]3CCCN(N3)C2=O)C(C)C)C1` [Example A045], the half-maximal inhibitory concentration (IC50) in assay [3] is 100 to 1000 nM; in assay [6], 1000 to 10000 nM; in [7], 1000 to 10000 nM; in assay [8] it was 1000 to 10000 nM; in assay [9], 1000 to 10000 nM; in assay [10], above 10000 nM. Moreover, the IC50 in assay [1] is 1000 to 10000 nM; in [11], above 10000 nM; in assay [2], 100 to 1000 nM.
With `C=CC(=O)N1CC[C@H](C(=O)N(C)[C@H](C(=O)N[C@H]2Cc3cc(O)cc(c3)-c3cc(F)c4c(c3)c(c(-c3ccccc3CCOC)n4CC)CC(C)(C)COC(=O)[C@@H]3CCCN(N3)C2=O)C(C)C)C1` [Example A053], the IC50 in assay [3] was 100 to 1000 nM; in assay [6], above 10000 nM; in assay [7], 1000 to 10000 nM and > 10000 nM; in assay [8], above 10000 nM; in [9] it was above 10000 nM; in assay [10], above 10000 nM. Moreover, the IC50 was above 10000 nM in assay [1], above 10000 nM in assay [11] and 1000 to 10000 nM in assay [2].
Consider `C=CC(=O)N1CC[C@H](C(=O)N(C)[C@H](C(=O)N[C@H]2Cc3cc(O)cc(c3)-c3ccc4c(c3)c(c(-c3cccnc3N3CC(OC)C3)n4CC)CC(C)(C)COC(=O)[C@@H]3CCCN(N3)C2=O)C(C)C)C1` [Example A060], for which the half-inhibitory concentration (IC50) was 100 to 1000 nM in assay [3]; 1000 to 10000 nM in assay [6]; 1000 to 10000 nM in assay [7]; 1000 to 10000 nM in [8]; above 10000 nM in [9]; above 10000 nM in assay [10]. Also, the 50% inhibitory concentration (IC50) in assay [1] is 1000 to 10000 nM; in assay [11], above 10000 nM; in [2] it was 1000 to 10000 nM.
For the compound `C=CC(=O)N1CC[C@H](C(=O)N(C)[C@H](C(=O)N[C@H]2Cc3cc(O)cc(c3)-c3ccc4c(c3)c(c(-c3cncnc3)n4CC)CC(C)(C)COC(=O)[C@@H]3CCCN(N3)C2=O)C(C)C)C1` [Example A061], the IC50 is 100 to 1000 nM in [3]; 1000 to 10000 nM in assay [6]; 1000 to 10000 nM in assay [7]; 1000 to 10000 nM in assay [8]; 1000 to 10000 nM in assay [9]; above 10000 nM in [10]. For the same compound, the IC50 in [1] is 1000 to 10000 nM; in assay [11] it was above 10000 nM; in [2], 1000 to 10000 nM.
Take `C=CC(=O)N1CC[C@H](C(=O)N(C)[C@H](C(=O)N[C@H]2Cc3cc(O)cc(c3)-c3ccc4c(c3)c(c(C3=C(COC)CCCC3)n4CC)CC(C)(C)COC(=O)[C@@H]3CCCN(N3)C2=O)C(C)C)C1` [Example A064]: the IC50 in assay [3] was 10 to 100 nM; in assay [6], 1000 to 10000 nM; in assay [7], 100 to 1000 nM; in assay [8] it was 1000 to 10000 nM; in assay [9], 1000 to 10000 nM; in [10] it was above 10000 nM. The results for the IC50 in [1], in assay [11] and in [2] were 1000 to 10000 nM, 1000 to 10000 nM and 100 to 1000 nM, respectively.
Consider `C=CC(=O)N1CC[C@H](C(=O)N(C)[C@H](C(=O)N[C@H]2Cc3cc(O)cc(c3)-c3ccc4c(c3)c(c(-c3cccnc3)n4C(C)(C)C#N)CC(C)(C)COC(=O)[C@@H]3CCCN(N3)C2=O)C(C)C)C1` [Example A074], for which the figures for the half-maximal inhibitory concentration (IC50) in [6], in [11] and in assay [2] were 100 to 1000 nM, 1000 to 10000 nM and 100 to 1000 nM, respectively.
Turning to `C=CC(=O)N1CC[C@H](C(=O)N(C)[C@H](C(=O)N[C@H]2Cc3cc(O)cc(c3)-c3ccc4c(c3)c(c(-c3cnccc3C)n4CC)CC(C)(C)COC(=O)[C@@H]3CCCN(N3)C2=O)C(C)C)C1` [Example A077], the IC50 in assay [3] was in the range of 10 to 100 nM; in [6], 100 to 1000 nM; in [7], 100 to 1000 nM; in [8] it was 100 to 1000 nM; in assay [9], 100 to 1000 nM; in assay [10] it was 1000 to 10000 nM. In addition, the concentration for half-maximal inhibition (IC50) in assay [1] is 100 to 1000 nM; in assay [11], 1000 to 10000 nM; in [2], 10 to 100 nM.
In the case of `C=CC(=O)N1CC[C@H](C(=O)N(C)[C@H](C(=O)N[C@H]2Cc3cc(O)cc(c3)-c3ccc4c(c3)c(c(-c3c(CCOC)cccc3OC)n4CC)CC(C)(C)COC(=O)[C@@H]3CCCN(N3)C2=O)C(C)C)C1` [Example A080], the IC50 in assay [3] is 100 to 1000 nM; in assay [6], above 10000 nM; in assay [7], above 10000 nM; in assay [8], 1000 to 10000 nM; in assay [9] it was above 10000 nM; in assay [10], above 10000 nM. The 50% inhibitory concentration (IC50) was 1000 to 10000 nM in assay [1], above 10000 nM in assay [11] and 1000 to 10000 nM in [2].

As usually defined, the IC50 is the concentration at which inhibition is half-maximal.
